The record followed here is US20240239794A1, “PKC-Theta Modulators” (Exscientia AI Limited, priority 2021, published 2024).

Test [1] deals with Recombinant human PKC-theta (His-tagged 362-706) (Homo sapiens (Human), UniProt Q04759). The experiment in a line: PKC-theta inhibition assay (HTRF KinEASE kit). It is filed as biochemical. To be noted: ATP 6.5 μM; for IC50: binned A to H, read-out: PKC-theta HTRF pIC50 (binned) (converted). In a few lines: (§1)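 HTRF KinEASE kinase assay, buffer supplemented with 10 mM MgCl2, 1 mM DTT, 0.1% Tween 20; enzyme at 10 ng/ml preincubated 30 min on ice with compound. PKC-theta: 525 nM STK substrate, 6.5 μM ATP, 30 min at 25° C; PKC-delta: 243 nM substrate, 5.7 μM ATP, 20 min. IC50 from 4-parameter fit of 10-dose series.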
A general note: TR-FRET usually uses a lanthanide donor and a delayed reading to cut background.

Test [2] relates to IL-2 secretion by human effector memory T cells (TEM). The experiment in a line: Effector memory T cells IL-2 release assay. In kind it is cell-based. The settings on record: T-cell, human CD4+ TEM cells, CD3/CD28 bead stimulation, 24 h. In a few lines:
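Human CD4+ effector memory T cells (negatively sorted from donor PBMC), 5,000 per well, stimulated with CD3/CD28 beads and 10 semi-log compound doses for 24 h at 37° C, 0.1% DMSO. Supernatant IL-2 measured by HTRF; IC50 from 4-parameter logistic fit; viability checked by flow cytometry.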

Test [3] has as its target Recombinant human PKC-delta (His-tagged 345-676) (Homo sapiens (Human), UniProt Q05655). The experiment in a line: PKC-delta inhibition assay (HTRF KinEASE kit), PKC-theta/PKC-delta selectivity. In kind it is biochemical. The settings on record: ratio; for PKC-theta/PKC-delta selectivity: PKC-theta over PKC-delta, HTRF assays; for PKC-theta/PKC-delta selectivity (binned): binned A to G. In a few lines:
as §1

[4] abbreviates: binned A to G, read-out: PKC-theta IL2 pIC50 (binned) (converted).
Where [5] appears, read: read-out: PKC-theta IL2 pIC50 (converted).

Where two headings read alike, the source gives them in different places. A value given as a limit tells only on which side of the number the result lay.

Recombinant human PKC-theta (His-tagged 362-706), sequence (Q04759 362-706): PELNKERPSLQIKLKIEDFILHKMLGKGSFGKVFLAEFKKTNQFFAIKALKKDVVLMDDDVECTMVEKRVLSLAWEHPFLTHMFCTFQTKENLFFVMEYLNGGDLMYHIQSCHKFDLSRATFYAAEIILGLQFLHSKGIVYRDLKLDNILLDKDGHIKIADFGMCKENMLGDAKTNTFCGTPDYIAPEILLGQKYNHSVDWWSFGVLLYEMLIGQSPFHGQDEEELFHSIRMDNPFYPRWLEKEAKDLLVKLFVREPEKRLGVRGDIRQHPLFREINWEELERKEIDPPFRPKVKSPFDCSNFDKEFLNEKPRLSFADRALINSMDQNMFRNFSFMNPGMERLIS
Recombinant human PKC-delta (His-tagged 345-676), sequence (Q05655 345-676): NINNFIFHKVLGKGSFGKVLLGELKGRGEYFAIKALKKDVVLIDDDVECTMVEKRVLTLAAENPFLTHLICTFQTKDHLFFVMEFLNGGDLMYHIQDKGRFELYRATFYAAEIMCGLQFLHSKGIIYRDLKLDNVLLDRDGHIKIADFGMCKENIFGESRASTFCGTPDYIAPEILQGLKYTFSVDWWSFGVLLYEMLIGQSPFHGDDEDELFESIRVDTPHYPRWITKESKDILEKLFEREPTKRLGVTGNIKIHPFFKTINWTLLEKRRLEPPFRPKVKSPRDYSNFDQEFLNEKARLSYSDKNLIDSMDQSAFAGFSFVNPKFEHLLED

`COC1(C)C(=O)Nc2nccc(-c3nn([C@@H]4CCNC[C@@H]4F)c4ccccc34)c21` (stereo partly drawn) [Example 61]: the “PKC-theta HTRF pIC50” value in test [1] was found to be 8.7. In addition, the IC50 in test [1] was 1 to 3.16 nM; in test [2] (setting [4]), 31.6 to 100 nM; in test [2] (setting [5]), 50.1 nM. In addition, in test [3], the PKC-theta/PKC-delta selectivity came out at 16. The “PKC-theta/PKC-delta selectivity (binned)” value in test [3] is “D (D means a ratio of between 10 and 20)”.
Consider `CNC1(C)C(=O)Nc2nccc(-c3nn(C4(CC#N)CCC4)c4ccccc34)c21` (stereo not drawn) [Example 62], for which, in test [1], the “PKC-theta HTRF pIC50” value is 9.5. Besides, the IC50 in test [1] is at most 1 nM; in test [2] (setting [4]), 1 to 3.16 nM; in test [2] (setting [5]), 1.58 nM. Further, in test [3], the PKC-theta/PKC-delta selectivity came to 3. The “PKC-theta/PKC-delta selectivity (binned)” value in test [3] was “F (F means a ratio of between 1 and 5)”.
As to `CN1CCOCC1(C)Cn1nc(-c2ccnc3c2C(C)(C)C(=O)N3)c2ccccc21` (stereo not drawn) [Example 63], in test [1], the “PKC-theta HTRF pIC50” value was determined as 7.5 and the IC50 was 10 to 31.6 nM. In addition, the IC50 in test [2] (setting [4]) was over 1000 nM. Besides, the IC50 in test [2] (setting [5]) was 1260 nM. In test [3], the PKC-theta/PKC-delta selectivity came out at 17; the “PKC-theta/PKC-delta selectivity (binned)” value is “D (D means a ratio of between 10 and 20)”.
With `COC1(C)C(=O)Nc2nccc(-c3nn(CC4(F)CCCNC4)c4ccccc34)c21` (stereo not drawn) [Example 67], the “PKC-theta HTRF pIC50” value in test [1] came to 7.5. Besides, the IC50 was 31.6 to 100 nM in test [1], 316 to 1000 nM in test [2] (setting [4]) and 398 nM in test [2] (setting [5]). The PKC-theta/PKC-delta selectivity in test [3] came to 9. The “PKC-theta/PKC-delta selectivity (binned)” value in test [3] is “E (E means a ratio of between 5 and 10)”.
Regarding `CC1(C)C(=O)Nc2nccc(-c3nn([C@H]4CCNC4)c4cc(F)ccc34)c21` [Example 70], in test [1], the “PKC-theta HTRF pIC50” value worked out at 8.1 and the IC50 was 3.16 to 10 nM. In addition, the IC50 in test [2] (setting [4]) is 100 to 316 nM. Further, the IC50 in test [2] (setting [5]) was 126 nM. Besides, in test [3], the PKC-theta/PKC-delta selectivity worked out at 20; the “PKC-theta/PKC-delta selectivity (binned)” value was “C (C means a ratio of between 20 and 30)”.
Turning to `CC1(C)C(=O)Nc2nccc(-c3nn([C@H]4CCNC4)c4cc(Cl)ccc34)c21` [Example 71], in test [1], the “PKC-theta HTRF pIC50” value came to 8.1 and the IC50 was 3.16 to 10 nM. In addition, in test [2] (setting [4]), the IC50 is 100 to 316 nM. The IC50 in test [2] (setting [5]) is 126 nM. Further, in test [3], the PKC-theta/PKC-delta selectivity came out at 22; the “PKC-theta/PKC-delta selectivity (binned)” value is “C (C means a ratio of between 20 and 30)”.
As to `CC1(C)C(=O)Nc2nccc(-c3nn([C@H]4CCNC4)c4c(F)cccc34)c21` [Example 72], the “PKC-theta HTRF pIC50” value in test [1] was 7.9. The IC50 in test [1] is 10 to 31.6 nM; in test [2] (setting [4]) it was 100 to 316 nM; in test [2] (setting [5]) it was 200 nM. Moreover, the PKC-theta/PKC-delta selectivity in test [3] amounted to 20. Also, the “PKC-theta/PKC-delta selectivity (binned)” value in test [3] is “D (D means a ratio of between 10 and 20)”.
For `CC1(C)C(=O)Nc2nccc(-c3nn([C@H]4CCNC4)c4ccc(F)cc34)c21` [Example 73], in test [1], the “PKC-theta HTRF pIC50” value was 7.5 and the IC50 was 10 to 31.6 nM. Besides, the IC50 in test [2] (setting [4]) is 316 to 1000 nM. Further, the IC50 in test [2] (setting [5]) is 631 nM. In test [3], the PKC-theta/PKC-delta selectivity worked out at 10; the “PKC-theta/PKC-delta selectivity (binned)” value was “D (D means a ratio of between 10 and 20)”.
For `CC1(C)C(=O)Nc2nccc(-c3nn([C@H]4CCNC4)c4cc(C(F)(F)F)ccc34)c21` [Example 74], in test [1], the “PKC-theta HTRF pIC50” value came out at 6.5. Moreover, the IC50 in test [1] was 100 to 316 nM; in test [2] (setting [4]), 316 to 1000 nM; in test [2] (setting [5]) it was 631 nM. In addition, the PKC-theta/PKC-delta selectivity in test [3] worked out at 33. Besides, the “PKC-theta/PKC-delta selectivity (binned)” value in test [3] was “B (B means a ratio of between 30 and 50)”.
As for `CC1(C)C(=O)Nc2nccc(-c3nn(C4(CF)CCNC4)c4ccccc34)c21` (stereo not drawn) [Example 77], in test [1], the “PKC-theta HTRF pIC50” value was 9.0 and the IC50 is at most 1 nM. The IC50 in test [2] (setting [4]) is 10 to 31.6 nM. Further, in test [2] (setting [5]), the IC50 was 12.6 nM. In addition, in test [3], the PKC-theta/PKC-delta selectivity amounted to 11; the “PKC-theta/PKC-delta selectivity (binned)” value was “D (D means a ratio of between 10 and 20)”.
For `CC1(C)C(=O)Nc2nccc(-c3nn(C[C@H]4COCCN4)c4ccccc34)c21` [Example 86], in test [1], the “PKC-theta HTRF pIC50” value stood at 7.5 and the IC50 was 10 to 31.6 nM. Moreover, in test [2] (setting [4]), the IC50 is over 1000 nM. For the same compound, in test [2] (setting [5]), the IC50 was 1260 nM. In addition, in test [3], the PKC-theta/PKC-delta selectivity is 26; the “PKC-theta/PKC-delta selectivity (binned)” value was “C (C means a ratio of between 20 and 30)”.
Consider `CC1(C)C(=O)Nc2nccc(-c3nn(C[C@@]4(C)COCCN4)c4cc(F)ccc34)c21` [Example 87], for which, in test [1], the “PKC-theta HTRF pIC50” value stood at 9.0 and the IC50 is at most 1 nM. The IC50 in test [2] (setting [4]) was 31.6 to 100 nM. For the same compound, the IC50 in test [2] (setting [5]) was 50.1 nM. Also, in test [3], the PKC-theta/PKC-delta selectivity turned out to be 38; the “PKC-theta/PKC-delta selectivity (binned)” value is “B (B means a ratio of between 30 and 50)”.
Take `CC1(C)C(=O)Nc2nccc(-c3nn(CC4(F)CCNC4)c4ccccc34)c21` (stereo not drawn) [Example 96]: in test [1], the “PKC-theta HTRF pIC50” value is on record as 8.7 and the IC50 is 1 to 3.16 nM. Further, the IC50 in test [2] (setting [4]) was 10 to 31.6 nM. In addition, the IC50 in test [2] (setting [5]) is 25.1 nM. In addition, in test [3], the PKC-theta/PKC-delta selectivity stood at 17; the “PKC-theta/PKC-delta selectivity (binned)” value is “D (D means a ratio of between 10 and 20)”.
On to `CC1(C)C(=O)Nc2nccc(-c3nn(C[C@]4(C)COCCN4)c4ccccc34)c21` [Example 109], for which, in test [1], the “PKC-theta HTRF pIC50” value is 7.7 and the IC50 was 10 to 31.6 nM. Also, the IC50 in test [2] (setting [4]) is 316 to 1000 nM. The IC50 in test [2] (setting [5]) was 501 nM. Moreover, in test [3], the PKC-theta/PKC-delta selectivity turned out to be 11; the “PKC-theta/PKC-delta selectivity (binned)” value was “D (D means a ratio of between 10 and 20)”.
Regarding `CC1(C)C(=O)Nc2nccc(-c3nn(C[C@]4(C)COCCN4)c4cc(F)ccc34)c21` [Example 110], in test [1], the “PKC-theta HTRF pIC50” value was found to be 7.6 and the IC50 was 10 to 31.6 nM. In addition, the IC50 in test [2] (setting [4]) is over 1000 nM. Moreover, the IC50 in test [2] (setting [5]) is 1000 nM. Also, in test [3], the PKC-theta/PKC-delta selectivity was 29; the “PKC-theta/PKC-delta selectivity (binned)” value is “C (C means a ratio of between 20 and 30)”.
With `CC1(O)C(=O)Nc2nccc(-c3cn([C@@H]4CCNC4)c4ccccc34)c21` (stereo partly drawn) [Example 111], in test [1], the “PKC-theta HTRF pIC50” value was 8.0. Moreover, the figures for the IC50 in test [1], in test [2] (setting [4]) and in test [2] (setting [5]) were 10 to 31.6 nM, 316 to 1000 nM and 398 nM, respectively. Besides, in test [3], the PKC-theta/PKC-delta selectivity turned out to be 7. Moreover, the “PKC-theta/PKC-delta selectivity (binned)” value in test [3] was “E (E means a ratio of between 5 and 10)”.
Take `CC1(C)C(=O)Nc2nccc(-c3nn(C4CCNCC4)c4cc(F)ccc34)c21` [Example 112]: in test [1], the “PKC-theta HTRF pIC50” value was 8.5 and the IC50 was 1 to 3.16 nM. The IC50 in test [2] (setting [4]) is 31.6 to 100 nM. In test [2] (setting [5]), the IC50 is 63.1 nM. Besides, in test [3], the PKC-theta/PKC-delta selectivity was 22; the “PKC-theta/PKC-delta selectivity (binned)” value is “C (C means a ratio of between 20 and 30)”.
